From patent US4963553A, “4-[(substituted) alkylcarbonyl]-4,5-dihydro- and -4,5,6,7-tetrahydro-7-[(substituted)phenyl]pyrazolo[1,5-a]pyrimidines” (American Cyanamid Co., priority 1988, dated 1990) come the findings set out here.

Molecules are shown by their SMILES. Counter-ions that a name gives are not always drawn.

The test system of one test is mice (hypoxic environment). The experiment in a line: Hypoxic survival test. Conditions: 100 mg/kg, intraperitoneal, 10% oxygen, 5 minutes. It counts as in vivo, mouse (Royal Hart). As to the method: The hypoxic survival test is a useful in vivo test for measuring the effectiveness of central nervous system-acting drugs in enhancing survival in an hypoxic environment relative to the known parasympathomimetic agent physostigmine.
Drugs are tested by intraperitoneal injection of groups of mice 30 minutes prior to placing them in an hypoxic environment and measuring survival. The rationale of this test is that drugs which enhance survival under hypoxic conditions without concomitant depression or sedative side effects, do so by enhancing brain metabolism, i.e., by improving energy supply relative to demand and so preserving normal brain function under conditions of reduced energy metabolism. Considering the dependence of the brain on a constant supply of energy, drugs which have this property may have many far-reaching therapeutic indications, including aiding recovery from stroke and closed head injury and reducing the deleterious effects of age-related central nervous system deficits.
In the hypoxic survival test, groups of 20 Royal Hart mice (6 weeks of age) were injected intraperitoneally with a test compound in saline at various doses ranging from 1 to 200 mg/kg, 30 minutes prior to placing them in an hypoxic mixture (10% oxygen, 90% […]) and measuring survival after 5 minutes.
A control group of 20 mice was injected intraperitoneally with saline (0.01 ml/g of body weight) and processed as described above.
Another group of 20 mice was injected intraperitoneally with 0.125 mg/kg of physostigmine in saline and processed as described above.
As to `Cl.Cl.N#Cc1cnn2c1N(C(=O)CN1CCN(CCc3ccccc3)CC1)CC=C2c1cccc(C(F)(F)F)c1` [Example 132, 4,5-Dihydro-4-[[4-(2-phenylethyl)-1-piperazinyl)acetyl]-7-[3-(trifluoromethyl)phenyl]pyrazolo[1,5-a]pyrimidine-3-carbonitrile, dihydrochloride], the “% Survivors” value is recorded as 60%. As to `COc1ccc(C(=O)N2CCN(CC(=O)N3CC=C(c4cccc(C(F)(F)F)c4)n4ncc(C#N)c43)CC2)cc1.Cl` [Example 163, 4,5-Dihydro-4-[[4-(4-methoxybenzoyl)-1-piperazinyl]acetyl]-7-[3-(trifluoromethyl)phenyl]pyrazolo[1,5-a]pyrimidine-3-carbonitrile, monohydrochloride], the “% Survivors” value is 25%.

The same test, now with this note: 100 mg/kg, intraperitoneal, 10% oxygen, 5 minutes; listed as 4,5-Dihydro-4-[[4-[(3-trifluoromethyl-phenyl)methyl]-1-piperazinyl]acetyl]-7-[3-, dihydrochloride.
For `N#Cc1cnn2c1N(C(=O)CN1CCN(Cc3cccc(C(F)(F)F)c3)CC1)CC=C2c1cccc(C(F)(F)F)c1` [Example 145, 4,5-Dihydro-7-[3-(trifluoromethyl)phenyl-4-[[4-[[3-(trifluoromethyl)phenyl]methyl]-1-piperazinyl]acetyl]pyrazolo[1,5-a]pyrimidine-3-carbonitrile, dihydrochloride], the “% Survivors” value was determined as 85%.

Still in this test, the particulars now being: 10% oxygen, after 5 minutes; physostigmine group 0.125 mg/kg intraperitoneal.
As for `CNC(=O)Oc1ccc2c(c1)[C@]1(C)CCN(C)[C@@H]1N2C` [physostigimine, reference compound], the “mice surviving (physostigmine-treated)” value is reported as 60-80%.

The same test, now with this note: Mus musculus, ip, 5 min, 10 mg/kg, intraperitoneal, 10% oxygen, 5 minutes; read-out: % Survivors.
For the compound `COc1cccc(CN2CCN(CC(=O)N3CC=C(c4ccccc4)n4ncc(C#N)c43)CC2)c1` [Example 150, 4,5-Dihydro-4-[[4-[(3-methoxyphenyl)methyl]-1-piperazinyl]acetyl]-7-phenylpyrazolo[1,5-a]pyrimidine-3-carbonitrile, dihydrochloride], the responders at 10 mg/kg stood at 45%. Still for that read-out and setting: as for `N#Cc1cnn2c1N(C(=O)CN1CCN(Cc3ccccc3C(F)(F)F)CC1)CC=C2c1cccc(C(F)(F)F)c1` [Example 152, 4,5-Dihydro-7-[3-(trifluoromethyl)phenyl]-4-[[4-[[2-(trifluoromethyl)phenyl]methyl]-1-piperazinyl]acetyl]pyrazolo[1,5-]pyrimidine-3-carbonitrile dihydrochloride], the figure is 30%; as for `O=C(CN1CCN(Cc2ccccc2)CC1)N1CC=C(c2cccc(C(F)(F)F)c2)n2ncc(Br)c21` [Example 154, 3-Bromo-4,5-dihydro-4-[[4-(phenylmethyl)-1-piperazinyl]acetyl]-7-[3-(trifluoromethyl)phenyl]pyrazolo[1,5-a]pyrimidine, dihydrochloride], 20%.

Staying with this test, now noted: Mus musculus, ip, 5 min, 100 mg/kg, intraperitoneal, 10% oxygen, 5 minutes; read-out: % Survivors.
Consider `COc1cccc(CN2CCN(CC(=O)N3CC(C)=C(c4cccc(Cl)c4)n4ncc(C#N)c43)CC2)c1` [Example 143, 7-(3-Chlorophenyl)-4,5-dihydro-4-[[4-[(3-methoxyphenyl)methyl]-1-piperazinyl]acetyl]-6-methylpyrazolo[1,5-a]pyrimidine-3-carbonitrile, dihydrochloride], for which the responders at 100 mg/kg was determined as 65%. The same measure, in the same setting: the figure for `COc1cccc(CN2CCN(CC(=O)N3CC=C(c4ccccc4)n4ncc(C#N)c43)CC2)c1` [Example 148, 4,5-Dihydro-4-[[4-[(3-methoxyphenyl)methyl]-1-piperazinyl]acetyl]-7-phenylpyrazolo[1,5-a]pyrimidine-3-carbonitrile] is 55%; for `Cc1cccc(C2=CCN(C(=O)CN3CCN(Cc4ccccc4)CC3)c3c(C#N)cnn32)c1` [Example 149, 4,5-Dihydro-7-(3-methylphenyl)-4-[[4-(phenylmethyl)-1-piperazinyl]acetyl]pyrazolo[1,5-a]pyrimidine-3-carbonitrile, hydrochloride] it is 55%. On the same count and under the same terms, the figure for `N#Cc1cnn2c1N(C(=O)CN1CCN(Cc3ccccc3C(F)(F)F)CC1)CC=C2c1cccc(C(F)(F)F)c1` [Example 151, 4,5-Dihydro-7-[3-(trifluoromethyl)phenyl]-4-[[4-[[2-(trifluoromethyl)phenyl]methyl]-1-piperazinyl]acetyl]pyrazolo[1,5-a]pyrimidine-3-carbonitrile] is 20%; for `N#Cc1cnn2c1N(C(=O)CN1CCN(c3ccc(F)cc3)CC1)CC=C2c1cccc(C(F)(F)F)c1` [Example 153, 4-[[4-(4-Fluorophenyl)-1-piperazinyl]acetyl]4,5-dihydro-7-[3-(trifluoromethyl)phenyl]pyrazolo[1,5-a]pyrimidine-3-carbonitrile, monohydrochloride] it is 35%. Consider `O=C(CN1CCN(Cc2ccccc2)CC1)N1CC=C(c2cccc(C(F)(F)F)c2)n2ncc(Cl)c21` [Example 155, 3-Chloro-4,5-dihydro-4-[[4-(phenylmethyl-1-piperazinyl]acetyl]-7-[3-trifluoromethyl)phenylpyrazolo[1,5-a]pyrimidine, dihydrochloride], for which the responders at 100 mg/kg came out at 25%.

Take `N#Cc1cnn2c1N(C(=O)CN1CCN(Cc3ccccc3F)CC1)CC=C2c1cccc(C(F)(F)F)c1` [Example 156, 4-[[4-[(2-Fluorophenyl)methyl]-1-piperazinyl]acetyl]4,5-dihydro-7-[3-(trifluoromethyl)phenyl]pyrazolo[1,5-a]pyrimidine-3-carbonitrile]: the responders at 100 mg/kg amounted to 55%.

Turning to `CC1=C(c2cccc(Cl)c2)n2ncc(C#N)c2N(C(=O)CN2CCN(Cc3ccccc3F)CC2)C1` [Example 157, 7-(3-Chlorophenyl)-4-[[4-[(2-fluorophenyl)methyl]-1-piperazinyl]acetyl]-4,5-dihydro-6-methylpyrazolo[1,5-a]pyrimidine-3-carbonitrile, dihydrochloride], the responders at 100 mg/kg stood at 45%. For `N#Cc1cnn2c1N(C(=O)CN1CCN(C(=O)OCc3ccccc3)CC1)CC=C2c1cccc(C(F)(F)F)c1` [Example 158, 4-[2-[3-Cyano-7-[3-(trifluoromethyl)phenyl]pyrazolo[1,5-a]pyrimidin-4(5H)-yl]-2-oxoethyl]-1-piperazinecarboxylic acid, phenylmethyl ester], the responders at 100 mg/kg amounted to 55%. In the case of `CC1=C(c2cccc(C(F)(F)F)c2)n2ncc(C#N)c2N(C(=O)CN2CCN(Cc3cccc(C(F)(F)F)c3)CC2)C1` [Example 160, 4,5-Dihydro-6-methyl-7-[3-(trifluoromethyl)phenyl]-4-[[4-[[3-(trifluoromethyl)phenyl]methyl]-1-piperazinyl]acetyl]pyrazolo[1,5-a]pyrimidine-3-dihydrochloride], the responders at 100 mg/kg is 40%. The same measure, in the same setting: as for `CCC1=C(c2cccc(C(F)(F)F)c2)n2ncc(C#N)c2N(C(=O)CN2CCN(Cc3ccccc3)CC2)C1` [Example 161, 4,5-Dihydro-6-ethyl-4-[[4-(phenylmethyl)-1-piperazinyl]acetyl]-7-[3-(trifluoromethyl)phenyl]pyrazolo[1,5-a]pyrimidine-3-carbonitrile], the figure is 25%. Still for that read-out and setting: as for `COc1ccc(C(=O)N2CCN(CC(=O)N3CC=C(c4cccc(C(F)(F)F)c4)n4ncc(C#N)c43)CC2)cc1` [Example 162, 4,5-Dihydro-4-[[4-(4-methoxybenzoyl)-1-piperazinyl]acetyl]-7-[3-(trifluoromethyl)phenyl]pyrazolo[1,5-a]pyrimidine-3-carbonitrile], the figure is 45%.

The same test, now with this note: Mus musculus, ip, 5 min, 200 mg/kg, intraperitoneal, 10% oxygen, 5 minutes; read-out: % Survivors.
For `CCC1=C(c2cccc(C(F)(F)F)c2)n2ncc(C#N)c2N(C(=O)CN2CCN(Cc3ccccc3)CC2)C1` [Example 140, 4,5-Dihydro-6-ethyl-4[[4-(phenylmethyl)-1-piperazinyl]acetyl]7-[3-(trifluoromethyl)phenyl]pyrazolo[1,5-a]pyrimidine-3-carbonitrile], the responders at 200 mg/kg stood at 42%.

Take `CC1=C(c2ccc(Cl)cc2)n2ncc(C#N)c2N(C(=O)CN2CCN(Cc3cccc(C(F)(F)F)c3)CC2)C1` [Example 142, 7-(4-Chlorophenyl)-4,5-dihydro-6-methyl-4-[[4-[[3-(trifluoromethyl)phenyl]methyl-1-piperazinyl]acetyl]pyrazolo[1,5-a]pyrimidine-3-carbonitrile, dihydrochloride]: the responders at 200 mg/kg turned out to be 37.5%.

In the next test the test system is Spontaneously Hypertensive Rats. The experiment in a line: Hypotensive activity: mean arterial blood pressure in spontaneously hypertensive rats. The format is in vivo, rat (Okamoto strain, male). Conditions: SHR, gavage, 100 mg/kg or less, two doses 24 h apart, measured at 28 hours; average MABP of rats used 160±1.5 mm. Here is the method: The novel compounds of the invention are active hypotensive agents at nontoxic doses when administered to mammals. These compounds were tested for hypotensive activity by the method of P. S. Chan and D. W. Poorvin, Clinical and Experimental Hypertension, (6), 817-830 (1979). Male, 16 week old, spontaneously hypertensive rats of the Okamoto strain (Taconic Farms, Germantown, N.Y.) having an average means arterial blood pressure of 160±1.5 mm of mercury are used in the test. A rat is dosed by gavage with a test compound, suspended in 2% pre-boiled starch at a concentration of 50 mg/ml, at a dose of 100 mg/kg of body weight or less, with 0.9% sodium chloride loading at a dose of 25 ml/kg of body weight. A second identical dose of the test compound, without sodium chloride loading is given 24 hours later. At 28 hours after the initial dose the mean arterial blood pressure is measured by the method of Chan and Poorvin vide supra.
With `N#Cc1cnn2c1N(C(=O)CN1CCN(C(c3ccccc3)c3ccc(Cl)cc3)CC1)CC=C2c1cccc(C(F)(F)F)c1` (stereo not shown) [Example 21, 4-[[4-[(4-Chlorophenyl)phenylmethyl]-1-piperazinyl]acetyl]-4,5-dihydro-7-[3-(trifluoromethyl)phenyl]pyrazolo[1,5-a]pyrimidine-3-carbonitrile], the “MABP/mmHg (mean arterial blood pressure)” value is on record as 134 mmHg.
